Laboratory results from PubChem BioAssay AID248 (DTP/NCI, 2004).
“And” between values parts separate entries of the source, which are not always exact repeats. Equal entries are not always repeated. Toxic doses and inconclusive results are not listed. Rule as the data show it: active = T/C of 150% or more; inactive = T/C below 125%.

Test system: L1210 leukemia ip in BDF1 mice, survival T/C
Assay: NCI In Vivo Anticancer Drug Screen. Data for tumor model L1210 Leukemia (intraperitoneal) in B6D2F1 (BDF1) mice
Details: endpoint: mean survival time, higher = longer survival
Outline: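 Transplantable tumor model; survival measured in treated vs vehicle control mice. Value = treated/control.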

[1] = dose: 100.0 mg/kg/injection, schedule: Q04DX002 (ip), vehicle: saline
[2] = dose: 200.0 mg/kg/injection, schedule: Q04DX002 (ip), vehicle: saline
[3] = dose: 100.0 mg/kg/injection, schedule: Q01DX001 (ip), vehicle: carboxymethylcellulose (CMC)
[4] = dose: 200.0 mg/kg/injection, schedule: Q01DX001 (ip), vehicle: carboxymethylcellulose (CMC)
[5] = dose: 400.0 mg/kg/injection, schedule: Q01DX001 (ip), vehicle: carboxymethylcellulose (CMC)
[6] = dose: 100.0 mg/kg/injection, schedule: Q01DX001 (ip), vehicle: saline
[7] = dose: 100.0 mg/kg/injection, schedule: Q01DX009 (ip), vehicle: Klucel (hydroxypropylcellulose) (HPC)
[8] = dose: 100.0 mg/kg/injection, schedule: Q04DX003 (ip), vehicle: Klucel (hydroxypropylcellulose) (HPC)
[9] = dose: 200.0 mg/kg/injection, schedule: Q01DX009 (ip), vehicle: Klucel (hydroxypropylcellulose) (HPC)
[10] = dose: 400.0 mg/kg/injection, schedule: Q01DX001 (ip), vehicle: saline
[11] = dose: 400.0 mg/kg/injection, schedule: Q04DX003 (ip), vehicle: Klucel (hydroxypropylcellulose) (HPC)
[12] = dose: 25.0 mg/kg/injection, schedule: Q01DX009 (ip), vehicle: Klucel (hydroxypropylcellulose) (HPC)
[13] = dose: 50.0 mg/kg/injection, schedule: Q01DX009 (ip), vehicle: Klucel (hydroxypropylcellulose) (HPC)
[14] = dose: 200.0 mg/kg/injection, schedule: Q04DX003 (ip), vehicle: Klucel (hydroxypropylcellulose) (HPC)
[15] = dose: 100.0 mg/kg/injection, schedule: Q04DX002 (ip), vehicle: Klucel (hydroxypropylcellulose) (HPC)
[16] = dose: 200.0 mg/kg/injection, schedule: Q04DX002 (ip), vehicle: Klucel (hydroxypropylcellulose) (HPC)
[17] = dose: 200.0 mg/kg/injection, schedule: Q01DX001 (ip), vehicle: saline

Measured: T/C

CC(=O)OCC(=O)C1(O)C(C)CC2C3C=C(C)C4=Cc5c(cnn5-c5ccccc5)CC4(C)C3C(O)CC21C (centres undefined)
inactive: dose: 8.0 mg/kg/injection, schedule: Q01DX001 (sc), vehicle: steriod suspending solution 110 % of control | dose: 16.0 mg/kg/injection, schedule: Q01DX001 (sc), vehicle: steriod suspending solution 105 % of control | dose: 32.0 mg/kg/injection, schedule: Q01DX001 (sc), vehicle: steriod suspending solution 113 % of control | dose: 45.0 mg/kg/injection, schedule: Q01DX001 (sc), vehicle: steriod suspending solution 106 % of control | dose: 70.0 mg/kg/injection, schedule: Q01DX001 (sc), vehicle: steriod suspending solution 89 % of control | dose: 105.0 mg/kg/injection, schedule: Q01DX001 (sc), vehicle: steriod suspending solution 95 % of control | dose: 160.0 mg/kg/injection, schedule: Q01DX001 (sc), vehicle: steriod suspending solution 98 % of control | dose: 240.0 mg/kg/injection, schedule: Q01DX001 (sc), vehicle: steriod suspending solution 110 % of control | dose: 360.0 mg/kg/injection, schedule: Q01DX001 (sc), vehicle: steriod suspending solution 93 % of control

CN1CCC=C(COC(=O)C(C)(C)C)C1
inactive: dose: 75.0 mg/kg/injection, schedule: Q01DX001 (ip), vehicle: carboxymethylcellulose (CMC) 92 % of control | dose: 150.0 mg/kg/injection, schedule: Q01DX001 (ip), vehicle: carboxymethylcellulose (CMC) 87 % of control | dose: 300.0 mg/kg/injection, schedule: Q01DX001 (ip), vehicle: carboxymethylcellulose (CMC) 95 % of control

CN(C)S(=O)(=O)c1ccc(NC(=O)C(Cl)Cl)cc1
inactive: dose: 100.0 mg/kg/injection, schedule: Q01DX001 (ip), vehicle: other 100 % of control | dose: 100.0 mg/kg/injection, schedule: Q01DX009 (ip), vehicle: saline with Tween-80 100 % of control | dose: 100.0 mg/kg/injection, schedule: Q04DX003 (ip), vehicle: other 103 % of control | dose: 200.0 mg/kg/injection, schedule: Q01DX001 (ip), vehicle: other 107 % of control | dose: 200.0 mg/kg/injection, schedule: Q01DX009 (ip), vehicle: saline with Tween-80 100 % of control | dose: 200.0 mg/kg/injection, schedule: Q04DX003 (ip), vehicle: other 101 % of control | dose: 400.0 mg/kg/injection, schedule: Q01DX001 (ip), vehicle: other 100 % of control | dose: 400.0 mg/kg/injection, schedule: Q01DX009 (ip), vehicle: saline with Tween-80 86 % of control | dose: 400.0 mg/kg/injection, schedule: Q04DX003 (ip), vehicle: other 101 % of control

CC1(C)C2CCC1(C)C(C(=O)C(F)(F)F)C2=O.CC1(C)C2CCC1(C)C(C(=O)C(F)(F)F)C2=O.[Co] (centres undefined)
inactive: [1] 110 % of control | [2] 94 % of control

COC1C(COC(=O)c2ccccc2)OC2OC(C)(C)OC21 (centres undefined)
inactive: dose: 50.0 mg/kg/injection, schedule: Q01DX001 (ip), vehicle: carboxymethylcellulose (CMC) 98 % of control | [3] 98 % of control | [4] 93 % of control | [5] 109 % of control

COc1cccc(C=NC2CC(C)CCC2C)c1OC (centres undefined)
inactive: dose: 50.0 mg/kg/injection, schedule: Q04DX002 (ip), vehicle: saline with Tween-80 90 % of control | dose: 100.0 mg/kg/injection, schedule: Q04DX002 (ip), vehicle: saline with Tween-80 93 % of control | dose: 200.0 mg/kg/injection, schedule: Q04DX002 (ip), vehicle: saline with Tween-80 87 % of control | dose: 400.0 mg/kg/injection, schedule: Q04DX002 (ip), vehicle: saline with Tween-80 90 % of control

N#CC=P(c1ccccc1)(c1ccccc1)c1ccccc1
inactive: dose: 50.0 mg/kg/injection, schedule: Q01DX009 (ip), vehicle: saline 87 % of control

S=P(c1ccccc1)(N1CCN(c2ccc(Cl)cc2)CC1)N1CCN(c2ccc(Cl)cc2)CC1
inactive: [6] 88 % of control | [7] 102 % of control | [8] 95 % of control | [9] 91 % of control | [10] 90 % of control | dose: 400.0 mg/kg/injection, schedule: Q01DX009 (ip), vehicle: Klucel (hydroxypropylcellulose) (HPC) 93 % of control | [11] 92 % of control

O=[N+]([O-])/C=C/c1ccc(Cl)cc1
inactive: [12] 97 % of control | [13] 103 % of control

CCC(C)c1ccccc1OC(=O)Nc1ccc(OC)cc1 (centres undefined)
inactive: [13] 105 % of control | [7] 92 % of control | [8] 96 % of control | [9] 95 % of control | [14] 94 % of control | [11] 100 % of control

CCCN(C)N=Nc1ccccc1C(=O)O
inactive: dose: 12.5 mg/kg/injection, schedule: Q01DX009 (ip), vehicle: Klucel (hydroxypropylcellulose) (HPC) 106 % of control and 113 % of control and 124 % of control | dose: 12.5 mg/kg/injection, schedule: Q04DX003 (ip), vehicle: Klucel (hydroxypropylcellulose) (HPC) 105 % of control | [12] 114 % of control and 116 % of control | dose: 25.0 mg/kg/injection, schedule: Q04DX003 (ip), vehicle: Klucel (hydroxypropylcellulose) (HPC) 118 % of control | dose: 50.0 mg/kg/injection, schedule: Q04DX003 (ip), vehicle: Klucel (hydroxypropylcellulose) (HPC) 105 % of control | dose: 75.0 mg/kg/injection, schedule: Q01DX009 (ip), vehicle: Klucel (hydroxypropylcellulose) (HPC) 87 % of control | [8] 113 % of control

NC(=O)COc1ccc(Cl)cc1Cl
inactive: [7] 111 % of control | [15] 112 % of control | [9] 101 % of control | [16] 100 % of control

CC(=O)Nc1cc(Cl)ccc1SC1OC(COC(C)=O)C(OC(C)=O)C(OC(C)=O)C1OC(C)=O (centres undefined)
inactive: [6] 93 % of control | [17] 95 % of control | [10] 87 % of control

CC1(C(=O)O)C2C3C=CC(C3)C21 (centres undefined)
inactive: dose: 100.0 mg/kg/injection, schedule: Q01DX001 (ip), vehicle: saline with Tween-80 97 % of control | dose: 200.0 mg/kg/injection, schedule: Q01DX001 (ip), vehicle: saline with Tween-80 93 % of control | dose: 400.0 mg/kg/injection, schedule: Q01DX001 (ip), vehicle: saline with Tween-80 92 % of control

O=C(O)C(F)(F)F
inactive: dose: 50.0 mg/kg/injection, schedule: Q01DX001 (ip), vehicle: water 112 % of control | dose: 50.0 mg/kg/injection, schedule: Q01DX001 (iv), vehicle: water 116 % of control | [6] 102 % of control | dose: 100.0 mg/kg/injection, schedule: Q01DX001 (iv), vehicle: water 114 % of control | dose: 100.0 mg/kg/injection, schedule: Q01DX009 (ip), vehicle: saline 100 % of control | [1] 96 % of control and 98 % of control | dose: 100.0 mg/kg/injection, schedule: Q04DX003 (ip), vehicle: saline 95 % of control | [17] 104 % of control | dose: 200.0 mg/kg/injection, schedule: Q01DX009 (ip), vehicle: saline 95 % of control and 96 % of control | [2] 94 % of control and 89 % of control | dose: 200.0 mg/kg/injection, schedule: Q04DX003 (ip), vehicle: saline 93 % of control | [10] 98 % of control | dose: 400.0 mg/kg/injection, schedule: Q01DX009 (ip), vehicle: saline 98 % of control and 90 % of control | dose: 400.0 mg/kg/injection, schedule: Q04DX002 (ip), vehicle: saline 93 % of control and 94 % of control | dose: 400.0 mg/kg/injection, schedule: Q04DX003 (ip), vehicle: saline 91 % of control

COc1ccccc1/C=C(/C)[N+](=O)[O-]
inactive: [3] 97 % of control | [4] 97 % of control | [5] 100 % of control

O=C(O)CCCCCCCCCCCCO
inactive: [8] 96 % of control | [14] 91 % of control | [11] 96 % of control

O=C(O)C1C2CC3CC(C2)CC1C3 (centres undefined)
inactive: [15] 105 % of control | [16] 94 % of control and 110 % of control | dose: 400.0 mg/kg/injection, schedule: Q04DX002 (ip), vehicle: Klucel (hydroxypropylcellulose) (HPC) 113 % of control | dose: 600.0 mg/kg/injection, schedule: Q04DX002 (ip), vehicle: Klucel (hydroxypropylcellulose) (HPC) 94 % of control
